Source: US9187411B2, “Leukotriene B4 antagonist compound” (Eli Lilly and Company, priority 2012, dated 2015)
Like-named read-outs stand apart in the source and are kept apart here.

Target: T1, hBLT1 (Homo sapiens, UniProt Q15722)
T1 construct: expressed in transfected cells; membrane preparation
Assay: [3H]-LTB4 binding assay in hBLT1 containing membranes
Conditions: [3H]-LTB4 displacement, hBLT1/CHO-K1 membranes, Ki = IC50/2.7
Protocol: [^3H]-LTB4 and known BLT1 and BLT2 antagonists are used to generate LTB4 displacement curves and IC50 values for compounds of the present invention. Receptor inhibition by compounds of the present invention is determined relative to BLT1 inhibitor and BLT2 inhibitor reference molecules to obtain percent efficacies.
hBLT1 Test Compound Preparations: For hBLT1 assays, test compounds are prepared in DMSO to make up a 10 mM stock solution. […]
hBLT1/CHO-K1 Stable Xcell Line Preparations: Human BLT1 receptor DNA (National Center for Biotechnology Information (NCBI), Reference Sequence NM_181657) is synthesized and cloned into expression vector pcDNA3.1/Hygro(+) (Invitrogen V87020). […] Single clones are isolated and screened for BLT1 expression and function using Western Blot analysis and Fluorometric Imaging Plate Reader (FLIPR®) calcium release assay. […]
[^3H]-LTB4 (30 μL of 1.3 nM, PerkinElmer NET-852) is aliquoted into a 96-well Millipore Multiscreen-filter binding plate (catalogue number MAFBNOB10) which is pre-wetted with Buffer A (50 mM HEPES pH 7.4, 10 mM MgCl2, 10 mM NaCl, 10% glycerol, 1% BSA). […] The plate is allowed to sit for 16 h and then read on a Packard Instrument Company Topcount® for 1 min. […] The IC50s are converted to Ki values by dividing by 2.7 (previously calculated). […]

T1 sequence (Q15722 whole entry): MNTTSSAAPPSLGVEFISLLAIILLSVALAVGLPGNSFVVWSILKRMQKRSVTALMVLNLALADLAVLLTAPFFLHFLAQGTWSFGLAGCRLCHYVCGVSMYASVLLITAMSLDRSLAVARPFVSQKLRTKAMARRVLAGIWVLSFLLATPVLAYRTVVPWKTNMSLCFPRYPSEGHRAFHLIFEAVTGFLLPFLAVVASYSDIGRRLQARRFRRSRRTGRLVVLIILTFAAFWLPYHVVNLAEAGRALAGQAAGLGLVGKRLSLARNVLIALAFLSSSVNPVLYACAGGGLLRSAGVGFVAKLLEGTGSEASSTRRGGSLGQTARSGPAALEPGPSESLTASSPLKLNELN

CCCc1c(NC(=O)CC(C)(C)C(=O)[O-])cccc1OCCCOc1cc(O)c(-c2ccc(F)cc2)cc1CC.[Na+] [Example 2, Sodium 4-[[3-[3-[2-ethyl-4-(4-fluorophenyl)-5-hydroxy-phenoxy]propoxy]-2-propyl-phenyl]amino]-2,2-dimethyl-4-oxo-butanoate]
Ki (read-out: absolute Ki): 5.5 nM | Ki (read-out: relative Ki): 10.4 nM
